# Source: PubChem BioAssay (NCI)
#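 96-well plates; 48 h exposure; 5 concentrations. Endpoints by linear interpolation between flanking doses. Not reached: highest tested concentration assigned. GI50 is the concentration that inhibits growth by half. The concentration for full growth arrest is given as TGI.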
# Key:
# Experiment in all cases: NCI anticancer screen, dose series, 48 h
# NCI-H23 lung = system: NCI-H23 lung
# NCI-H460 lung = system: NCI-H460 lung
# NCI-H522 lung = system: NCI-H522 lung
# OVCAR-3 ovarian = system: OVCAR-3 ovarian
# OVCAR-4 ovarian = system: OVCAR-4 ovarian
# OVCAR-5 ovarian = system: OVCAR-5 ovarian
# OVCAR-8 ovarian = system: OVCAR-8 ovarian
# RPMI-8226 leukemia = system: RPMI-8226 leukemia
# RXF 393 renal = system: RXF 393 renal
# RXF-631 renal = system: RXF-631 renal
# SF-268 CNS = system: SF-268 CNS
# SF-295 CNS = system: SF-295 CNS
# SF-539 CNS = system: SF-539 CNS
# SK-MEL-2 melanoma = system: SK-MEL-2 melanoma
# SK-MEL-28 melanoma = system: SK-MEL-28 melanoma
# SK-MEL-5 melanoma = system: SK-MEL-5 melanoma
# SK-OV-3 ovarian = system: SK-OV-3 ovarian
# SN12C renal = system: SN12C renal
# SNB-19 CNS = system: SNB-19 CNS
# SNB-75 CNS = system: SNB-75 CNS
# SNB-78 CNS = system: SNB-78 CNS
# SR leukemia = system: SR leukemia
# SW-620 colon = system: SW-620 colon
# TK-10 renal = system: TK-10 renal
# U251 CNS = system: U251 CNS
# UACC-257 melanoma = system: UACC-257 melanoma
# UACC-62 melanoma = system: UACC-62 melanoma
# UO-31 renal = system: UO-31 renal
# XF 498 CNS = system: XF 498 CNS
structure (smiles),measurement,setting,value
CCC[CH2][Sn]1([CH2]CCC)[O]CC(CN2CCCCC2)[O]1 (stereo not drawn),GI50,NCI-H23 lung,137 nM
same,TGI,NCI-H23 lung,343 nM
same,GI50,NCI-H460 lung,1100 nM
same,TGI,NCI-H460 lung,2290 nM
same,GI50,NCI-H522 lung,48.7 nM
same,TGI,NCI-H522 lung,176 nM
same,GI50,OVCAR-3 ovarian,271 nM
same,TGI,OVCAR-3 ovarian,821 nM
same,GI50,OVCAR-4 ovarian,226 nM
same,TGI,OVCAR-4 ovarian,1430 nM
same,GI50,OVCAR-5 ovarian,1530 nM
same,TGI,OVCAR-5 ovarian,2860 nM
same,GI50,OVCAR-8 ovarian,283 nM
same,TGI,OVCAR-8 ovarian,873 nM
same,GI50,RPMI-8226 leukemia,136 nM
same,TGI,RPMI-8226 leukemia,484 nM
same,GI50,RXF 393 renal,299 nM
same,TGI,RXF 393 renal,542 nM
same,GI50,RXF-631 renal,124 nM
same,TGI,RXF-631 renal,248 nM
same,GI50,SF-268 CNS,295 nM
same,TGI,SF-268 CNS,1340 nM
same,GI50,SF-295 CNS,309 nM
same,TGI,SF-295 CNS,1320 nM
same,GI50,SF-539 CNS,391 nM
same,TGI,SF-539 CNS,1500 nM
same,GI50,SK-MEL-2 melanoma,185 nM
same,TGI,SK-MEL-2 melanoma,422 nM
same,GI50,SK-MEL-28 melanoma,685 nM
same,TGI,SK-MEL-28 melanoma,1930 nM
same,GI50,SK-MEL-5 melanoma,582 nM
same,TGI,SK-MEL-5 melanoma,1910 nM
same,GI50,SK-OV-3 ovarian,1300 nM
same,TGI,SK-OV-3 ovarian,2810 nM
same,GI50,SN12C renal,356 nM
same,TGI,SN12C renal,1430 nM
same,GI50,SNB-19 CNS,330 nM
same,TGI,SNB-19 CNS,948 nM
same,GI50,SNB-75 CNS,197 nM
same,TGI,SNB-75 CNS,731 nM
same,GI50,SNB-78 CNS,266 nM
same,TGI,SNB-78 CNS,761 nM
same,GI50,SR leukemia,199 nM
same,TGI,SR leukemia,619 nM
same,GI50,SW-620 colon,137 nM
same,TGI,SW-620 colon,388 nM
same,GI50,TK-10 renal,242 nM
same,TGI,TK-10 renal,897 nM
same,GI50,U251 CNS,285 nM
same,TGI,U251 CNS,1110 nM
same,GI50,UACC-257 melanoma,309 nM
same,TGI,UACC-257 melanoma,1050 nM
same,GI50,UACC-62 melanoma,301 nM
same,TGI,UACC-62 melanoma,1300 nM
same,GI50,UO-31 renal,954 nM
same,TGI,UO-31 renal,2140 nM
same,GI50,XF 498 CNS,121 nM
same,TGI,XF 498 CNS,264 nM
